What follows are compounds tested against T1, GGTase-I (Rattus norvegicus, UniProt P53610+Q04631) (assay: In vitro GGTase-I enzyme assay (IC50, kinetics)). Details: Tables 5, 14; read-out: In vitro (enzyme assay) IC50, GGTase I.
T1 construct: purchased JENA BIOSCIENCE
Assay type: biochemical
Procedure: The GGTase-I assay was carried out using RhoA as a substrate protein, GGTase-I (JENA Bioscience) and [3H]geranylgeranyl pyrophosphate. Incubation was for 30 min at 37° C. GGTase-II (or RabGGTase) assay was carried out using YPTI as a substrate protein, GGTase-II (Calbiochem, San Diego, Calif.) plus REP1 (Calbiochem) and [3H]geranylgeranyl pyrophosphate. Incubation was for 30 min at 37° C. FIGS. 20D-20F show the three dimensional structure of GGTase I (D), FTsse (E) and GGTase II (F) which can be obtained from X-ray diffraction studies of protein crystals.
GGTase-I and FTase activities were determined by following the incorporation of radiolabeled isoprenoid [^3H]-geranylgeranyl or [^3H]-farnesyl into substrate proteins. FTase or GGTase-I (50 nM) were used to initiate reactions containing 0.4 μM of [^3H]-FPP or 0.5 μM of [^3H]-GGPP and 2 μM of MBP-tagged substrates (K-Ras4B for FTase; RhoA for GGTase-I) in 20 μl of buffer {50 mM Tris-HCl (pH 7.5), 10 mM MgCl2, […] and 5 mM DTT}. Inhibitors were added at the indicated concentrations. The final DMSO concentration was 2.5% for all samples.
Reactions were carried out for 10 min at 30° C. The reaction mixture was spotted onto a filter paper, treated with 10% trichloroacetic acid (TCA) followed by ethanol and acetone washing. The filter was counted using a scintillation counter. Kinetic assays in which the GGPP concentration was varied employed fixed concentrations of GGTase-I and RhoA, and reactions were carried out for 5 min. Similarly, fixed concentrations of GGTase-I and GGPP were used when the amount of RhoA was varied.

Row | IC50 | SMILES
1 | 0.6 µM | NC(=O)[C@H](Cc1ccccc1)NC(=O)C1=CC[C@@H](c2cccc(Cl)c2)N(S(=O)(=O)c2ccc(Cl)cc2)C1c1cccc(Cl)c1 (stereo partly drawn) [P61-D02]

Same assay, conditions: Tables 8-15; no unit printed there (Table 7 head: μM unless otherwise specified); read-out: In vitro (GGTase I IC50)

Row | IC50 | SMILES
2 | 4.4 µM | CC(C)(C)[C@@H]1C=C(C(=O)O)[C@H](c2ccc(Cl)cc2)N1S(=O)(=O)c1c(Cl)cccc1Cl
3 | 28.9 µM | CC(C)(C)[C@@H]1C=C(C(=O)O)[C@H](c2ccc(Cl)cc2)N1S(=O)(=O)C(C)(C)C
4 | 2.1 µM | COC(=O)[C@H](Cc1ccccc1)NC(=O)COCC1=C[C@@H](C(C)(C)C)N(S(=O)(=O)c2ccccc2C)[C@H]1c1ccc(Cl)cc1
5 | 0.1 µM | Cc1ccccc1S(=O)(=O)N1[C@@H](c2ccc(Cl)cc2)C(COCC(=O)N[C@@H](Cc2ccccc2)C(=O)O)=C[C@H]1C(C)(C)C
6 | 0.7 µM | Cc1ccccc1S(=O)(=O)N1[C@@H](c2ccc(Cl)cc2)C(COCC(=O)N[C@@H](Cc2ccccc2)C(N)=O)=C[C@H]1C(C)(C)C
7 | > 100 µM | Cc1ccccc1S(=O)(=O)N1C(c2cccc(Cl)c2)C(CO)=CC[C@H]1c1ccc(Cl)cc1 (stereo partly drawn)
8 | 1.4 µM | Cc1ccccc1S(=O)(=O)N1[C@@H](c2ccc(Cl)cc2)C(C(=O)N[C@@H](Cc2ccccc2)C(=O)O)=C[C@H]1C(C)(C)C [drawing 152]

These compounds were tested on Jurkat cells (assay: Jurkat cell growth inhibition). Details: Homo sapiens, Jurkat, Tables 4, 6, 7; read-out: Jurkat cell GI50.
Assay type: cell-based, human
Procedure: In Table 4 in cell GI50 values for the growth inhibition of Jurkat cells are reported. The GI50 value is the concentration of a test compound needed to produce 50% growth inhibition in the cell type listed. In Table 4 the isolated yield of each synthetic step for the synthesis of corresponding compounds are also reported.
Panc-1 cells (Pancreatic cancer cell line) and Jurkat cells (T-cell leukemia) were treated with 12.5 μM of P5-H6 or 12.5 μM of mP5-H6a for 72 hours. The cell number was counted as described in Example 5.
(§1) Cell viability was determined by Cell Counting Kit-8 (CCK-8, Dojindo, Kumamoto, Japan) as described previously (31). Cell viability was calculated relative to the DMSO control. Cell cycle profile was analyzed by flow cytometry as described previously (32).

Row | GI50 | SMILES
9 | 1.96 µM | NC(=O)[C@H](Cc1ccccc1)NC(=O)C1=CC[C@@H](c2cccc(Cl)c2)N(S(=O)(=O)c2ccc(Cl)cc2)C1c1cccc(Cl)c1 (stereo partly drawn) [P61-D02]

Same assay, conditions: Homo sapiens, Jurkat, Tables 8-15; no unit printed there; read-out: Jurkat GI50

Row | SMILES | GI50
10 | Cc1ccccc1S(=O)(=O)N1C(c2cccc(Cl)c2)C(CO)=CC[C@H]1c1ccc(Cl)cc1 (stereo partly drawn) | 7.5 µM
11 | Cc1ccccc1S(=O)(=O)N1C(c2cccc(Cl)c2)C(C(=O)N[C@@H](CC(C)C)C(N)=O)=CC[C@H]1c1ccc(Cl)cc1 (stereo partly drawn) | 6.1 µM
12 | CC(C)C[C@H](NC(=O)C1=CC[C@@H](c2cccc(Br)c2)N(S(=O)(=O)c2ccc(Cl)cc2)C1c1cccc(Cl)c1)C(N)=O (stereo partly drawn) | 3.15 µM
13 | NC(=O)[C@H](Cc1ccccc1)NC(=O)C1=CC[C@@H](c2cccc(Cl)c2)N(S(=O)(=O)c2ccc(Cl)cc2)C1c1cccc(Cl)c1 (stereo partly drawn) [P61-D02] | 1.96 µM

Second part, the compound after the results:

Row | GI50 | SMILES
14 | 2.76 µM | CC(C)(C)[C@@H]1C=C(C(=O)O)[C@H](c2ccc(Cl)cc2)N1S(=O)(=O)c1c(Cl)cccc1Cl
15 | 5.36 µM | CC(C)(C)[C@@H]1C=C(C(=O)O)[C@H](c2ccc(Cl)cc2)N1S(=O)(=O)C(C)(C)C
16 | 3.51 µM | COC(=O)[C@H](Cc1ccccc1)NC(=O)COCC1=C[C@@H](C(C)(C)C)N(S(=O)(=O)c2ccccc2C)[C@H]1c1ccc(Cl)cc1
17 | 12 µM | Cc1ccccc1S(=O)(=O)N1[C@@H](c2ccc(Cl)cc2)C(COCC(=O)N[C@@H](Cc2ccccc2)C(=O)O)=C[C@H]1C(C)(C)C
18 | 1.3 µM | Cc1ccccc1S(=O)(=O)N1[C@@H](c2ccc(Cl)cc2)C(COCC(=O)N[C@@H](Cc2ccccc2)C(N)=O)=C[C@H]1C(C)(C)C
19 | 13 µM | Cc1ccccc1S(=O)(=O)N1[C@@H](c2ccc(Cl)cc2)C(C(=O)N[C@@H](Cc2ccccc2)C(=O)O)=C[C@H]1C(C)(C)C [drawing 152]

Same assay, conditions: Tables 8-15; no unit printed there; read-out: Jurkat GI50

Row | GI50 | SMILES
20 | 10.5 µM | COC(=O)[C@H](Cc1ccccc1)NC(=O)C1=C[C@@H](C(C)(C)C)N(S(=O)(=O)c2ccccc2C)[C@H]1c1ccc(Cl)cc1 [P61A5]
21 | 6.1 µM | Cc1ccccc1S(=O)(=O)N1C(c2cccc(Cl)c2)C(C(=O)N[C@@H](CC(C)C)C(N)=O)=CC[C@H]1c1ccc(Cl)cc1 (stereo partly drawn) [drawing 214]

What follows are compounds tested on K562 cells (assay: K562 cell growth inhibition). Details: Homo sapiens, K562, Tables 8-15; no unit printed there.
Assay type: cell-based, human
Procedure: K562 cells are a cell line of human erythroleukemia cells. The K562 cells were treated with P3-E5, P5-H6 or GGTI-298 (a known GGTI compound illustrated in FIG. 27) for 72 hours and then cell number was counted using cell counting kit-8 (Dojindo, Gaithersburg, Md.). Cell viability relative to the DMSO control and the known GGTI compound is plotted in FIG. 23.
as §1

Row | SMILES | GI50
22 | Cc1ccccc1S(=O)(=O)N1C(c2cccc(Cl)c2)C(CO)=CC[C@H]1c1ccc(Cl)cc1 (stereo partly drawn) | 5.8 µM
23 | Cc1ccccc1S(=O)(=O)N1C(c2cccc(Cl)c2)C(C(=O)N[C@@H](CC(C)C)C(N)=O)=CC[C@H]1c1ccc(Cl)cc1 (stereo partly drawn) | 6.15 µM
24 | CC(C)C[C@H](NC(=O)C1=CC[C@@H](c2cccc(Br)c2)N(S(=O)(=O)c2ccc(Cl)cc2)C1c1cccc(Cl)c1)C(N)=O (stereo partly drawn) | 7.06 µM
25 | NC(=O)[C@H](Cc1ccccc1)NC(=O)C1=CC[C@@H](c2cccc(Cl)c2)N(S(=O)(=O)c2ccc(Cl)cc2)C1c1cccc(Cl)c1 (stereo partly drawn) [P61-D02] | 4.33 µM

Further lines, results first:

Row | GI50 | SMILES
26 | 8.26 µM | CC(C)(C)[C@@H]1C=C(C(=O)O)[C@H](c2ccc(Cl)cc2)N1S(=O)(=O)c1c(Cl)cccc1Cl
27 | > 20 µM | CC(C)(C)[C@@H]1C=C(C(=O)O)[C@H](c2ccc(Cl)cc2)N1S(=O)(=O)C(C)(C)C
28 | 6.01 µM | COC(=O)[C@H](Cc1ccccc1)NC(=O)COCC1=C[C@@H](C(C)(C)C)N(S(=O)(=O)c2ccccc2C)[C@H]1c1ccc(Cl)cc1
29 | 17 µM | Cc1ccccc1S(=O)(=O)N1[C@@H](c2ccc(Cl)cc2)C(COCC(=O)N[C@@H](Cc2ccccc2)C(=O)O)=C[C@H]1C(C)(C)C
30 | 5 µM | Cc1ccccc1S(=O)(=O)N1[C@@H](c2ccc(Cl)cc2)C(COCC(=O)N[C@@H](Cc2ccccc2)C(N)=O)=C[C@H]1C(C)(C)C
31 | 20 µM | Cc1ccccc1S(=O)(=O)N1[C@@H](c2ccc(Cl)cc2)C(C(=O)N[C@@H](Cc2ccccc2)C(=O)O)=C[C@H]1C(C)(C)C [drawing 152]

Same assay, conditions: Tables 8-15; no unit printed there

Row | GI50 | SMILES
32 | 17 µM | COC(=O)[C@H](Cc1ccccc1)NC(=O)C1=C[C@@H](C(C)(C)C)N(S(=O)(=O)c2ccccc2C)[C@H]1c1ccc(Cl)cc1 [P61A5]

These compounds were tested on MCF7 (assay: MCF7 cell growth inhibition). Details: Homo sapiens, MCF7, Tables 8-15; no unit printed there.
Assay type: cell-based, human
Procedure: (§2) In FIG. 9-24 in vitro IC50 values for the GGTase I activity are reported. In Tables 7-15 in cell GI50 values for the growth inhibition of a variety of cancer cell lines (e.g., Jurkat, K562, MDA-MB-231, BT474, MCF7, MiaPaCa2, Aspc-1, Panc-1, Capan-2, CFpac-1, and MCF10a) are reported.
as §1

Row | GI50 | SMILES
33 | 6.78 µM | COC(=O)[C@H](Cc1ccccc1)NC(=O)COCC1=C[C@@H](C(C)(C)C)N(S(=O)(=O)c2ccccc2C)[C@H]1c1ccc(Cl)cc1
34 | 10.9 µM | Cc1ccccc1S(=O)(=O)N1C(c2cccc(Cl)c2)C(C(=O)N[C@@H](CC(C)C)C(N)=O)=CC[C@H]1c1ccc(Cl)cc1 (stereo partly drawn)
35 | 3.43 µM | CC(C)C[C@H](NC(=O)C1=CC[C@@H](c2cccc(Br)c2)N(S(=O)(=O)c2ccc(Cl)cc2)C1c1cccc(Cl)c1)C(N)=O (stereo partly drawn)

Each compound was assayed on MCF10a (assay: MCF10a cell growth inhibition). Details: Homo sapiens, MCF-10A, Tables 8-15; no unit printed there.
Assay type: cell-based
Description: as §2

Row | SMILES | GI50
36 | COC(=O)[C@H](Cc1ccccc1)NC(=O)COCC1=C[C@@H](C(C)(C)C)N(S(=O)(=O)c2ccccc2C)[C@H]1c1ccc(Cl)cc1 | 20 µM
37 | Cc1ccccc1S(=O)(=O)N1C(c2cccc(Cl)c2)C(C(=O)N[C@@H](CC(C)C)C(N)=O)=CC[C@H]1c1ccc(Cl)cc1 (stereo partly drawn) | > 20 µM
38 | CC(C)C[C@H](NC(=O)C1=CC[C@@H](c2cccc(Br)c2)N(S(=O)(=O)c2ccc(Cl)cc2)C1c1cccc(Cl)c1)C(N)=O (stereo partly drawn) | 14.2 µM

Same assay, conditions: Tables 8-15; no unit printed there

Row | SMILES | GI50
39 | Cc1ccccc1S(=O)(=O)N1C(c2cccc(Cl)c2)C(C(=O)N[C@@H](CC(C)C)C(N)=O)=CC[C@H]1c1ccc(Cl)cc1 (stereo partly drawn) [drawing 214] | > 20 µM

These compounds were tested on MiaPaCa2 (assay: MiaPaCa2 cell growth inhibition). Details: Homo sapiens, MIA PaCa-2, Tables 8-15; no unit printed there.
Assay type: cell-based, human
Procedure: as §2, §1

Row | GI50 | SMILES
40 | 12 µM | Cc1ccccc1S(=O)(=O)N1C(c2cccc(Cl)c2)C(C(=O)N[C@@H](CC(C)C)C(N)=O)=CC[C@H]1c1ccc(Cl)cc1 (stereo partly drawn) [drawing 202]

The compounds below were run on Capan-2 (assay: Capan-2 cell growth inhibition). Details: Homo sapiens, Capan-2, Tables 8-15; no unit printed there.
Assay type: cell-based, human
Procedure: as §2, §1

Row | SMILES | GI50
41 | Cc1ccccc1S(=O)(=O)N1C(c2cccc(Cl)c2)C(C(=O)N[C@@H](CC(C)C)C(N)=O)=CC[C@H]1c1ccc(Cl)cc1 (stereo partly drawn) [drawing 202] | 14 µM

Each compound was assayed on CFpac-1 (assay: CFpac-1 cell growth inhibition). Details: Homo sapiens, CFPAC-1, Tables 8-15; no unit printed there.
Assay type: cell-based, human
Procedure: as §2, §1

Row | SMILES | GI50
42 | Cc1ccccc1S(=O)(=O)N1C(c2cccc(Cl)c2)C(C(=O)N[C@@H](CC(C)C)C(N)=O)=CC[C@H]1c1ccc(Cl)cc1 (stereo partly drawn) [drawing 202] | 13.7 µM
